Oligonucleotides are written 5' to 3', each unit as a sugar letter and its base; * is a phosphorothioate linkage, no mark a phosphodiester; rarer units and linkages stand in square brackets, end groups in braces. Plain capitals give the bases only. d = 2'-deoxy (DNA); r = 2'-OH (RNA)

The source of these data is the OligoGym collection.
Further: test concentration or dose not given here.

The data set addresses DENND5A. The experiment in a line: reporter assay of Huesken 2005. As to conditions: siRNA.
In the case of “sense rArArUrGrGrCrArUrUrGrUrGrArArGrCrArCrUdTdT / antisense rArGrUrGrCrUrUrCrArCrArArUrGrCrCrArUrUdGdA”, the normalised inhibition (eCFP-eYFP dual reporter) stood at 60.5%. As to “sense rArArUrGrGrGrArArCrArUrUrGrCrUrGrGrCrUdTdT / antisense rArGrCrCrArGrCrArArUrGrUrUrCrCrCrArUrUdCdC”, the normalised inhibition (eCFP-eYFP dual reporter) was 43.6%. With “sense rArCrArUrCrCrArGrArArCrArUrCrGrGrGrGrAdTdT / antisense rUrCrCrCrCrGrArUrGrUrUrCrUrGrGrArUrGrUdGdC” the figure was 44.4%; with “sense rArCrArUrGrArArGrArUrUrGrGrArCrArArGrGdTdT / antisense rCrCrUrUrGrUrCrCrArArUrCrUrUrCrArUrGrUdCdA”, 70.5%; with “sense rArCrCrCrCrArGrCrArGrCrArArUrArArGrGrAdTdT / antisense rUrCrCrUrUrArUrUrGrCrUrGrCrUrGrGrGrGrUdCdT”, 64.9%. With “sense rArCrCrUrGrCrCrCrUrUrCrCrUrCrUrCrArArGdTdT / antisense rCrUrUrGrArGrArGrGrArArGrGrGrCrArGrGrUdAdG”, the normalised inhibition (eCFP-eYFP dual reporter) was found to be 53.2%.

Turning to “sense rArCrGrArGrCrUrGrUrCrGrGrCrArUrUrArUrGdTdT / antisense rCrArUrArArUrGrCrCrGrArCrArGrCrUrCrGrUdCdC”, the normalised inhibition (eCFP-eYFP dual reporter) amounted to 54.1%. With “sense rArCrGrCrUrGrUrUrGrCrUrCrUrGrUrGrGrArGdTdT / antisense rCrUrCrCrArCrArGrArGrCrArArCrArGrCrGrUdCdA”, the normalised inhibition (eCFP-eYFP dual reporter) is 60.7%.

Regarding “sense rArCrUrGrGrGrGrUrGrArGrCrCrUrGrGrArArAdTdT / antisense rUrUrUrCrCrArGrGrCrUrCrArCrCrCrCrArGrUdTdC”, the normalised inhibition (eCFP-eYFP dual reporter) came to 37.1%. The substance “sense rArGrArArCrUrUrGrGrGrGrArArGrCrUrUrArCdTdT / antisense rGrUrArArGrCrUrUrCrCrCrCrArArGrUrUrCrUdGdG” had a normalised inhibition (eCFP-eYFP dual reporter) of 88.2%. In turn, “sense rArGrArArGrArArCrUrCrArGrGrArUrUrUrArCdTdT / antisense rGrUrArArArUrCrCrUrGrArGrUrUrCrUrUrCrUdTdC” had a normalised inhibition (eCFP-eYFP dual reporter) of 44.7%.

For “sense rArGrArCrCrCrArGrGrCrUrGrArUrCrCrCrArGdTdT / antisense rCrUrGrGrGrArUrCrArGrCrCrUrGrGrGrUrCrUdTdG”, the normalised inhibition (eCFP-eYFP dual reporter) was determined as 75.1%.

Regarding “sense rArGrArGrGrArArUrGrGrGrArArCrArUrUrGrCdTdT / antisense rGrCrArArUrGrUrUrCrCrCrArUrUrCrCrUrCrUdTdG”, the normalised inhibition (eCFP-eYFP dual reporter) stood at 53.6%. Turning to “sense rArGrArGrGrGrArGrArArGrUrArCrArUrCrCrAdTdT / antisense rUrGrGrArUrGrUrArCrUrUrCrUrCrCrCrUrCrUdGdG”, the normalised inhibition (eCFP-eYFP dual reporter) came out at 80.7%. Regarding “sense rArGrArGrUrGrCrCrUrCrCrArArGrCrUrGrArAdTdT / antisense rUrUrCrArGrCrUrUrGrGrArGrGrCrArCrUrCrUdCdA”, the normalised inhibition (eCFP-eYFP dual reporter) was found to be 66.9%.

Regarding “sense rArGrCrCrCrCrArArUrUrCrCrArUrGrCrCrUrUdTdT / antisense rArArGrGrCrArUrGrGrArArUrUrGrGrGrGrCrUdCdC”, the normalised inhibition (eCFP-eYFP dual reporter) came out at 57.6%. Under “sense rArGrCrUrGrArArGrArGrGrCrUrGrCrGrGrGrCdTdT / antisense rGrCrCrCrGrCrArGrCrCrUrCrUrUrCrArGrCrUdTdG” stands 54.9%; under “sense rArGrGrArCrArArCrCrGrGrCrArGrArGrArArAdTdT / antisense rUrUrUrCrUrCrUrGrCrCrGrGrUrUrGrUrCrCrUdGdA”, 67%; under “sense rArGrGrArGrArArUrUrGrGrGrUrGrArGrArCrAdTdT / antisense rUrGrUrCrUrCrArCrCrCrArArUrUrCrUrCrCrUdGdA”, 70.5%. Substance “sense rArGrGrCrUrGrArUrCrCrCrArGrGrGrArGrCrCdTdT / antisense rGrGrCrUrCrCrCrUrGrGrGrArUrCrArGrCrCrUdGdG” had a normalised inhibition (eCFP-eYFP dual reporter) of 57.4%. With “sense rArGrGrGrArUrGrGrUrGrCrCrArGrCrCrCrUrUdTdT / antisense rArArGrGrGrCrUrGrGrCrArCrCrArUrCrCrCrUdGdG” the figure was 83.7%; with “sense rArGrUrUrGrCrCrArGrArGrGrArCrUrUrGrCrCdTdT / antisense rGrGrCrArArGrUrCrCrUrCrUrGrGrCrArArCrUdCdA”, 71.7%. Under “sense rArUrCrCrArArCrCrCrArGrCrCrArGrGrArUrAdTdT / antisense rUrArUrCrCrUrGrGrCrUrGrGrGrUrUrGrGrArUdGdA” stands 51.8%. For “sense rArUrCrCrGrCrCrArGrCrCrCrArArArCrUrGrUdTdT / antisense rArCrArGrUrUrUrGrGrGrCrUrGrGrCrGrGrArUdAdG”, the normalised inhibition (eCFP-eYFP dual reporter) was 40.9%.

The substance “sense rArUrGrCrCrArArArUrGrGrCrUrGrGrUrGrGrAdTdT / antisense rUrCrCrArCrCrArGrCrCrArUrUrUrGrGrCrArUdAdC” gave a normalised inhibition (eCFP-eYFP dual reporter) of 69.5%. With “sense rArUrGrGrCrUrGrGrUrGrGrArGrUrArUrGrUrGdTdT / antisense rCrArCrArUrArCrUrCrCrArCrCrArGrCrCrArUdTdT” the figure was 71.9%.

“sense rArUrUrCrCrUrArCrGrArGrCrUrUrCrUrUrArAdTdT / antisense rUrUrArArGrArArGrCrUrCrGrUrArGrGrArArUdGdC”: the normalised inhibition (eCFP-eYFP dual reporter) stood at 65.4%. Substance “sense rArUrUrGrArCrArArCrCrArCrUrUrCrArUrUrGdTdT / antisense rCrArArUrGrArArGrUrGrGrUrUrGrUrCrArArUdGdT” came in with a normalised inhibition (eCFP-eYFP dual reporter) of 48.7%. The substance “sense rArUrUrGrArCrCrArUrArCrUrGrCrArArUrUrCdTdT / antisense rGrArArUrUrGrCrArGrUrArUrGrGrUrCrArArUdTdT” had a normalised inhibition (eCFP-eYFP dual reporter) of 45.9%.

The substance “sense rArUrUrGrCrCrArGrCrCrUrUrUrGrUrGrArUrCdTdT / antisense rGrArUrCrArCrArArArGrGrCrUrGrGrCrArArUdCdA” gave a normalised inhibition (eCFP-eYFP dual reporter) of 48.5%. In turn, “sense rArUrUrUrGrArCrUrUrUrCrCrUrGrUrCrArArAdTdT / antisense rUrUrUrGrArCrArGrGrArArArGrUrCrArArArUdAdG” gave a normalised inhibition (eCFP-eYFP dual reporter) of 53.7%. With “sense rArUrUrUrGrGrGrUrUrUrGrCrCrCrUrCrArCrAdTdT / antisense rUrGrUrGrArGrGrGrCrArArArCrCrCrArArArUdGdT” the figure was 72.2%; with “sense rCrArArGrArUrCrArGrGrCrUrGrUrUrGrArArUdTdT / antisense rArUrUrCrArArCrArGrCrCrUrGrArUrCrUrUrGdTdC”, 55.7%; with “sense rCrArCrArUrGrCrArCrArArUrGrCrUrGrArGrUdTdT / antisense rArCrUrCrArGrCrArUrUrGrUrGrCrArUrGrUrGdGdT”, 69.6%.

“sense rCrArCrCrUrArCrUrCrUrCrCrGrUrArCrArUrCdTdT / antisense rGrArUrGrUrArCrGrGrArGrArGrUrArGrGrUrGdTdC” displayed a normalised inhibition (eCFP-eYFP dual reporter) of 54.7%. On to “sense rCrArGrArUrCrUrGrCrArGrUrGrCrArArUrGrCdTdT / antisense rGrCrArUrUrGrCrArCrUrGrCrArGrArUrCrUrGdCdT”, for which the normalised inhibition (eCFP-eYFP dual reporter) worked out at 56.3%.

Regarding “sense rCrArGrArUrGrUrUrUrGrCrArUrCrUrUrUrCrAdTdT / antisense rUrGrArArArGrArUrGrCrArArArCrArUrCrUrGdGdG”, the normalised inhibition (eCFP-eYFP dual reporter) is 75.3%. On to “sense rCrArGrCrGrCrUrUrCrArArCrUrCrCrUrArUrGdTdT / antisense rCrArUrArGrGrArGrUrUrGrArArGrCrGrCrUrGdCdA”, for which the normalised inhibition (eCFP-eYFP dual reporter) is 49.9%.

As for “sense rCrArGrGrArUrArUrGrArGrGrCrArCrArUrCrCdTdT / antisense rGrGrArUrGrUrGrCrCrUrCrArUrArUrCrCrUrGdAdA”, the normalised inhibition (eCFP-eYFP dual reporter) is 46.7%.

“sense rCrArGrGrGrArGrCrArArArUrGrCrArArArArCdTdT / antisense rGrUrUrUrUrGrCrArUrUrUrGrCrUrCrCrCrUrGdTdT” displayed a normalised inhibition (eCFP-eYFP dual reporter) of 67.9%. Take “sense rCrArGrUrUrCrCrCrCrArArCrArArArUrUrGrGdTdT / antisense rCrCrArArUrUrUrGrUrUrGrGrGrGrArArCrUrGdTdG”: the normalised inhibition (eCFP-eYFP dual reporter) turned out to be 67.9%.

For the substance “sense rCrArUrGrUrCrGrGrArGrCrGrUrGrCrUrGrGrAdTdT / antisense rUrCrCrArGrCrArCrGrCrUrCrCrGrArCrArUrGdCdC”, the normalised inhibition (eCFP-eYFP dual reporter) worked out at 60.8%.

“sense rCrArUrUrCrArGrArUrCrCrGrGrGrArArGrUrUdTdT / antisense rArArCrUrUrCrCrCrGrGrArUrCrUrGrArArUrGdTdT”: the normalised inhibition (eCFP-eYFP dual reporter) amounted to 74.7%. As to “sense rCrCrArGrArGrGrGrArGrArArGrUrArCrArUrCdTdT / antisense rGrArUrGrUrArCrUrUrCrUrCrCrCrUrCrUrGrGdTdC”, the normalised inhibition (eCFP-eYFP dual reporter) is 34.5%. The substance “sense rCrCrArGrCrCrUrUrUrGrUrGrArUrCrUrCrCrUdTdT / antisense rArGrGrArGrArUrCrArCrArArArGrGrCrUrGrGdCdA” returned a normalised inhibition (eCFP-eYFP dual reporter) of 47.1%. Under “sense rCrCrArGrCrUrCrArCrUrCrArUrGrCrCrUrCrCdTdT / antisense rGrGrArGrGrCrArUrGrArGrUrGrArGrCrUrGrGdCdA” stands 64.4%; under “sense rCrCrArUrGrCrCrUrUrUrArUrUrArUrCrArCrAdTdT / antisense rUrGrUrGrArUrArArUrArArArGrGrCrArUrGrGdAdA”, 72.5%; under “sense rCrCrCrCrGrCrCrGrCrUrGrCrArGrCrArGrUrCdTdT / antisense rGrArCrUrGrCrUrGrCrArGrCrGrGrCrGrGrGrGdTdC”, 61.8%.

Regarding “sense rCrCrUrCrUrArCrCrArCrArUrGrCrArCrArArUdTdT / antisense rArUrUrGrUrGrCrArUrGrUrGrGrUrArGrArGrGdGdT”, the normalised inhibition (eCFP-eYFP dual reporter) came to 68.3%.
